The source made the active and inactive calls. How the calls were made is not given here.

The test relates to AML12 mouse hepatocytes, cytotoxicity. Nature of the test: AML12 mouse hepatocyte viability loss – cell-based, cytotoxicity control, SAR follow-up (AID 504443).
Consider `Cn1c(C(=O)NCc2ccc3c(c2)OCO3)cc2ccsc21`, for which the IC50 was > 10 µM (inactive).

In the case of `COc1ccc(CCNC(=O)c2cc(-c3ccccc3)c(N3CCOCC3)s2)c(OC)c1OC`, the IC50 is > 10 µM (inactive).

For the compound `CCOc1cc(CCNC(=O)c2cc(-c3ccccc3)c(N3CCOCC3)s2)ccc1OC`, the IC50 was > 10 µM (inactive).

As to `CCOc1ccc(CCNC(=O)Cn2nc(C)c3c(C)n(-c4ccccc4)nc3c2=O)cc1OCC`, the IC50 is > 10 µM (inactive).

Take `CCOc1cc(CCNC(=O)c2cc3ccccc3n2C)ccc1OC`: the IC50 was > 10 µM (inactive).

In the case of `CCOc1cc(CCNC(=O)c2ccc(N3CCOCC3)s2)ccc1OC`, the IC50 was > 10 µM (inactive).

Take `Cn1c(=O)cc(SCC(=O)Nc2ccc3c(c2)OCO3)c2ccccc21`: the IC50 was > 10 µM (inactive).

Turning to `COc1cc(CNC(=O)c2cc3ccsc3n2C)cc(OC)c1OC`, the IC50 is > 10 µM (inactive).

Regarding `CCOc1cc(CCNC(=O)c2cc3sccc3n2CC)ccc1OC`, the IC50 was > 10 µM (inactive).

Regarding `COc1ccc(CNC(=O)c2ccc(N3CCOCC3)s2)cc1OC`, the IC50 is > 10 µM (inactive).

Regarding `CCOc1ccc(CCNC(=O)COC(=O)c2ccc(OC)c(OC)c2OC)cc1OCC`, the IC50 was > 10 µM (inactive).

With `CCOc1ccc(CCNC(=O)CSc2cc(=O)n(C)c3ccccc23)cc1OCC`, the IC50 was > 10 µM (inactive).

For the compound `CCOc1ccc(CCNC(=O)c2cc(-c3ccccc3)c(N3CCOCC3)s2)cc1OC`, the IC50 is > 10 µM (inactive).

Take `COc1ccc(CCNC(=O)c2cc3sccc3n2C)cc1OC`: the IC50 is > 10 µM (inactive).

In the case of `CCOc1ccc(CCNC(=O)c2cc(-c3ccccc3)c(N3CCOCC3)s2)cc1OCC`, the IC50 was > 10 µM (inactive).

`CCOc1ccc(CCNC(=O)c2cc3ccsc3n2CC)cc1OCC`: the IC50 was > 10 µM (inactive).

Turning to `CCOc1ccc(CCNC(=O)Cn2cccc2C(=O)c2ccccc2C)cc1OCC`, the IC50 was > 10 µM (inactive).

For `CCOc1cc(CCNC(=O)c2cc3ccsc3n2C)ccc1OC`, the IC50 is > 10 µM (inactive).

Take `COc1ccc(NC(=O)c2cc3ccsc3n2C)cc1OC`: the IC50 is > 10 µM (inactive).

As for `CCn1c(C(=O)NCCc2ccc(OC)c(OC)c2)cc2sc(Cl)cc21`, the IC50 was > 10 µM (inactive).

Turning to `COc1ccc(CCNC(=O)c2cc3ccccc3n2C)cc1OC`, the IC50 was > 10 µM (inactive).

For `CCn1c(C(=O)NCc2ccc3c(c2)OCO3)cc2sccc21`, the IC50 was > 10 µM (inactive).

In the case of `Cn1c(C(=O)NCCc2ccc3c(c2)OCO3)cc2ccccc21`, the IC50 is > 10 µM (inactive).

For `CCOc1ccc(CCNC(=O)COC(=O)c2cc(OC)c(OC)c(OC)c2)cc1OCC`, the IC50 is > 10 µM (inactive).

Turning to `CCn1c(C(=O)Nc2ccc3c(c2)OCO3)cc2sccc21`, the IC50 is > 10 µM (inactive).

In the case of `CCn1c(C(=O)NCc2cc(OC)c(OC)c(OC)c2)cc2ccsc21`, the IC50 was > 10 µM (inactive).

Turning to `CCOc1cc(CCNC(=O)c2cc3sccc3[nH]2)ccc1OC`, the IC50 was > 10 µM (inactive).

Turning to `CCOc1ccc(CCNC(=O)c2cc3sccc3n2CC)cc1OC`, the IC50 was > 10 µM (inactive).

On to `CCOc1ccc(CCNC(=O)CCc2nnc3ccc(N4CCCCC4)nn23)cc1OCC`, for which the IC50 is > 10 µM (inactive).

Regarding `CCn1c(C(=O)Nc2ccc(OC)c(OC)c2)cc2sccc21`, the IC50 is > 10 µM (inactive).

`CCOc1ccc(CCNC(=O)CCC(=O)N2CCSc3ccccc32)cc1OCC`: the IC50 was > 10 µM (inactive).

Consider `CCOc1ccc(CCNC(=O)CSc2cc(=O)n(C)c3ccccc23)cc1OC`, for which the IC50 is > 10 µM (inactive).

On to `CCOc1ccc(CCNC(=O)CN2CCN(Cc3ccccc3C)C2=O)cc1OCC`, for which the IC50 is > 10 µM (inactive).

With `CCOc1ccc(CCNC(=O)c2cc3sc(Cl)cc3n2C)cc1OCC`, the IC50 is > 10 µM (inactive).

On to `COc1ccc(CCNC(=O)c2cc3sc(Cl)cc3n2C)cc1OC`, for which the IC50 is > 10 µM (inactive).

`CCOc1ccc(CCNC(=O)c2cc3ccccc3n2C)cc1OC`: the IC50 was > 10 µM (inactive).

For the compound `CCn1c(C(=O)NCc2ccc(OC)c(OC)c2)cc2ccsc21`, the IC50 was > 10 µM (inactive).

Regarding `CCOc1ccc(CCNC(=O)c2cc3sccc3n2C)cc1OCC`, the IC50 was > 10 µM (inactive).

For the compound `COc1cc(CNC(=O)CSc2cc(=O)n(C)c3ccccc23)cc(OC)c1OC`, the IC50 is > 10 µM (inactive).

For `CCn1c(C(=O)Nc2ccc(OC)c(OC)c2)cc2ccsc21`, the IC50 was > 10 µM (inactive).

For the compound `COc1ccc(CCNC(=O)CSc2cc(=O)n(C)c3ccccc23)cc1OC`, the IC50 is > 10 µM (inactive).

Regarding `CCOc1ccc(CCNC(=O)CCC(=O)N2CCOc3ccc(C)cc32)cc1OCC`, the IC50 was > 10 µM (inactive).

Regarding `O=C(NCCc1ccc2c(c1)OCO2)c1cc2sccc2[nH]1`, the IC50 is > 10 µM (inactive).

Regarding `CCOc1ccc(CCNC(=O)CCc2nnc3ccc(N4CCCC4)nn23)cc1OCC`, the IC50 was > 10 µM (inactive).

Regarding `O=C(NCCc1ccc2c(c1)OCO2)c1cc(-c2ccccc2)c(N2CCOCC2)s1`, the IC50 was > 10 µM (inactive).

As to `CCOc1ccc(CCNC(=O)c2cc3ccsc3n2CC)cc1OC`, the IC50 is > 10 µM (inactive).

For the compound `CCOc1ccc(CCNC(=O)c2cc3ccsc3n2C)cc1OCC`, the IC50 was > 10 µM (inactive).

In the case of `CCOc1ccc(CCNC(=O)c2nnc(Cc3ccc(F)cc3)o2)cc1OCC`, the IC50 is > 10 µM (inactive).

In the case of `CCOc1ccc(CCNC(=O)CSc2cc(=O)n(C)c3cc(Cl)ccc23)cc1OCC`, the IC50 was > 10 µM (inactive).

As to `CCOc1ccc(CCNC(=O)COc2cc(=O)n(C)c3ccccc23)cc1OCC`, the IC50 is > 10 µM (inactive).

In the case of `COc1ccc(CCNC(=O)Cn2cccc2C(=O)c2ccccc2C)cc1OC`, the IC50 is > 10 µM (inactive).

For `CCOc1ccc(CCNC(=O)c2cc3ccsc3n2C)cc1OC`, the IC50 is > 10 µM (inactive).

On to `COc1ccc(CCNC(=O)c2cc(-c3ccccc3)c(N3CCOCC3)s2)cc1OC`, for which the IC50 is > 10 µM (inactive).

As for `CCn1c(C(=O)Nc2ccc3c(c2)OCO3)cc2ccsc21`, the IC50 was > 10 µM (inactive).

For the compound `CCOc1ccc(CCNC(=O)CN2C(=O)c3cccnc3Oc3ccc(C)cc32)cc1OCC`, the IC50 was > 10 µM (inactive).

Consider `Cn1c(=O)cc(SCC(=O)NCc2ccc3c(c2)OCO3)c2ccccc21`, for which the IC50 is > 10 µM (inactive).

As for `CCOc1ccc(CCNC(=O)c2ccc(N3CCOCC3)s2)cc1OCC`, the IC50 is > 10 µM (inactive).

On to `CCOc1cc(CCNC(=O)CSc2cc(=O)n(C)c3ccccc23)ccc1OC`, for which the IC50 is > 10 µM (inactive).

For the compound `CCOc1ccc(CCNC(=O)C2CC=CCC2C(=O)OC(C)C)cc1OCC` (stereo not drawn), the IC50 is > 10 µM (inactive).

With `CCOc1cc(CCNC(=O)COc2cc(=O)n(C)c3ccccc23)ccc1OC`, the IC50 was > 10 µM (inactive).

For the compound `CCOc1ccc(CCNC(=O)COC(=O)c2cc(OC)cc(OC)c2)cc1OCC`, the IC50 is > 10 µM (inactive).

For `CCn1c(C(=O)NCc2cc(OC)c(OC)c(OC)c2)cc2sccc21`, the IC50 is > 10 µM (inactive).

Turning to `COc1ccc(CCNC(=O)COC(=O)c2cc(OC)c(OC)cc2OC)cc1OC`, the IC50 was > 10 µM (inactive).

As for `CCOc1ccc(CCNC(=O)Cn2ncn3nc(-c4ccc(OC)cc4)cc3c2=O)cc1OCC`, the IC50 was > 10 µM (inactive).

Regarding `O=C(NCCc1ccc2c(c1)OCO2)c1ccc(N2CCOCC2)s1`, the IC50 was > 10 µM (inactive).

Turning to `CCn1c(C(=O)NCCc2ccc(OC)c(OC)c2)cc2ccsc21`, the IC50 is > 10 µM (inactive).

Regarding `COc1ccc(CNC(=O)c2cc(-c3ccccc3)c(N3CCOCC3)s2)cc1OC`, the IC50 is > 10 µM (inactive).

Regarding `COc1ccc(CNC(=O)CSc2cc(=O)n(C)c3ccccc23)cc1OC`, the IC50 was > 10 µM (inactive).

Take `CCOc1ccc(CCNC(=O)c2cc3sccc3[nH]2)cc1OCC`: the IC50 was > 10 µM (inactive).

In the case of `CCOc1ccc(CCNC(=O)CSc2cc(=O)n(CC)c3ccccc23)cc1OCC`, the IC50 is > 10 µM (inactive).

Turning to `COc1ccc(CNC(=O)c2cc3ccsc3n2C)cc1OC`, the IC50 is > 10 µM (inactive).

Consider `CCOc1ccc(CCNC(=O)c2cc3sccc3n2CC)cc1OCC`, for which the IC50 was > 10 µM (inactive).

For `CCOc1ccc(CCNC(=O)CCc2nc(-c3ccc(OC)cc3)no2)cc1OCC`, the IC50 was > 10 µM (inactive).

With `CCOc1ccc(CCNC(=O)CCOc2cc(C)ccc2C)cc1OCC`, the IC50 was > 10 µM (inactive).

For `Cn1c(C(=O)Nc2ccc3c(c2)OCO3)cc2ccsc21`, the IC50 was > 10 µM (inactive).

`Cn1c(=O)cc(SCC(=O)NCCc2ccc3c(c2)OCO3)c2ccccc21`: the IC50 was > 10 µM (inactive).

For the compound `CCOc1ccc(CCNC(=O)Cn2cccc2C(=O)c2ccccc2)cc1OCC`, the IC50 was > 10 µM (inactive).

In the case of `CCOc1ccc(CCNC(=O)CCC(=O)N2CCOc3ccccc32)cc1OCC`, the IC50 was > 10 µM (inactive).

These data come from PubChem BioAssay AID504443 (Sanford-Burnham Center for Chemical Genomics, 2011).
